Reference: patent US11738014B2, “Niraparib particles and uses thereof” (CRITITECH, INC., priority 2021, dated 2023)
In brackets after ≈: the same amount, converted by molar mass.

Tests used:
[1] = Particle Size Distribution (PSD) by Laser Diffraction (Malvern Mastersizer 3000); type: physicochemical; conditions: dispersed in ethyl acetate
Description: Particle Size Distribution (PSD) by Laser Diffraction
Particle size analyses were conducted on a Malvern Mastersizer™ 3000 using the Hydro MV™ dispersion unit. A non-validated general PSD method/dispersant method was used to analyze the niraparib samples. The sample preparation procedure performed was as follows: Weigh 10 to 20 mg of niraparib into a 30-mL vial, add 20 mL of ethyl acetate. Disperse the sample by vortexing then sonicating the suspension in an ultrasonic bath for 1 minute. Then transfer the sample suspension to the Malvern Hydro MV™ dispersion unit to obtain obscuration between 5 and 15%.
PSD results from a Dv10 of 0.601 μ to a Dv90 of 12.9μ were obtained. […] Particle size distributions can be viewed in Table 1.

[2] = Specific Surface Area (SSA) determination by BET Sorptometry; type: physicochemical
Description: As used herein, the “specific surface area” is the total surface area of the niraparib particle per unit of niraparib mass as measured by the Brunauer-Emmett-Teller (“BET”) isotherm (i.e.: the BET SSA). As will be understood by those of skill in the art, the SSA is determined on a per gram basis and takes into account both agglomerated and non-agglomerated niraparib particles in the composition. The BET specific surface area test procedure is a compendial method included in both the United States Pharmacopeia and the European Pharmacopeia. The niraparib particles have a specific surface area (SSA) of at least 5 m^2/g. In various further embodiments, the niraparib particles have a SSA of at least 6 m^2/g, 7 m^2/g, 8 m^2/g, 9 m^2/g 10 m^2/g, 11 m^2/g, 12 m^2/g, 13 m^2/g, 14 m^2/g, 15 m^2/g, 16 m^2/g, 17 m^2/g, 18 m^2/g, 19 m^2/g, 20 m^2/g, 21 m^2/g, 22 m^2/g, 23 m^2/g, or 24 m^2/g.
Specific Surface Area (SSA) determination by BET Sorptometry
Surface area analyses were conducted on a Quantachrome NOVAtouch™ LX2 BET Sorptometer. Surface area results can be found in Table 1.

[3] = Bulk density analysis by modified USP <616> Bulk Density of Powders Method I (bulk and tapped density); type: physicochemical
Excerpt: As used herein, the bulk density (not tapped) of a particle is the ratio of the mass to the volume (including the interparticulate void volume) of an untapped powder sample.
As used herein, the tapped density of a particle is obtained by mechanically tapping a graduated cylinder containing the sample until little further volume change is observed.
Bulk density analysis by modified USP <616> Bulk Density of Powders Method I

[4] = physchem; conditions: for solubility at 24 h: 20 °C, aqueous with cosolvent or surfactant or cyclodextrin, thermodynamic from solid
Description: The solubility was determined by using a shake-flask method. The drug was added in excess to each solution prepared in duplicate. The vials were placed on a mechanical shaker for 24 hours at 20-25° C. After shaking, solution was removed and filtered through a 0.45 μm PTFE syringe filter and analyzed by UV/Visible spectrophotometry.

- Dv-10 [1]: 33.2 μ
- Dv-50 [1]: 103 μ
- Dv-90 [1]: 267 μ
- Surface Area ([2]; BET sorptometer): 0.70 m^2/gm
- specific surface area measurement ([2]; material used in dissolution testing): 0.70 m^2/g
- Bulk Density ([3]; not tapped): 0.617 gm/cm^3
- Tapped Density ([3]; tapped): 0.741 gm/cm^3
- solubility at 24 h ([4]; 10% ethanol in water): 56.2 µg/mL (≈ 175 µM)
- solubility at 24 h ([4]; 10% methanol in water): 76.4 µg/mL (≈ 238 µM)
- solubility at 24 h ([4]; 25% ethanol in water): 332 µg/mL (≈ 1040 µM)
- solubility at 24 h ([4]; 25% methanol in water): 204 µg/mL (≈ 637 µM)
- solubility versus organic solvent concentration ([4]; methanol or ethanol, 10% and 25%): concentration dependent solubility
Structure (SMILES): NC(=O)c1cccc2cn(-c3ccc([C@@H]4CCCNC4)cc3)nc12 [Niraparib, (S)-2-(4-(piperidin-3-yl)phenyl)-2H-indazole-7-carboxamide]
